Results published in ChEMBL document CHEMBL1201862, “PubChem BioAssay data set” (2004).
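Each compound was tested at five concentrations against cells in 96-well plates for 48 hours. GI50 marks 50% less growth.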 Activity calls are given as the source filed them. Rule as the data show it: active = GI50 up to about 1.1 µM and inactive = higher.

Assays:
Test in all cases: growth of human tumour cells (NCI), 48 h
M19-MEL = tested on: M19-MEL
KM-20L2 = tested on: KM-20L2
LXFL 529 = tested on: LXFL 529
SNB-78 = tested on: SNB-78
DMS-273 = tested on: DMS-273
DLD-1 = tested on: DLD-1
HOP-18 = tested on: HOP-18
RXF 631 = tested on: RXF 631
XF498 = tested on: XF498

Row | SMILES | GI50 (M19-MEL) | GI50 (KM-20L2) | GI50 (LXFL 529) | GI50 (SNB-78) | GI50 (DMS-273) | GI50 (DLD-1) | GI50 (HOP-18) | GI50 (RXF 631) | GI50 (XF498)
1 | N/N=C(/C(=O)Nc1cccc(Cl)c1)C(C(=O)c1ccc(O)cc1O)C1OC(=O)c2ccccc21 (stereo not given) | > 100 µM (inactive) | > 100 µM (inactive) | > 100 µM (inactive) | > 100 µM (inactive) | 65.9 µM (inactive) | – | – | – | –
2 | Cc1cc(O)nc(NNC(C#N)c2c(O)ccc3ccccc23)n1 (stereo not given) | 4.68 µM (inactive) | 24.8 µM (inactive) | 8.79 µM (inactive) | 19.3 µM (inactive) | 3.87 µM (inactive) | 3.42 µM (inactive) | 4.49 µM (inactive) | – | –
3 | COc1ccc(CNc2cc(OC)c(OC)c(OC)c2)cc1 | 4.57 µM (inactive) | 2.8 µM (inactive) | 7.64 µM (inactive) | 4.62 µM (inactive) | 2.09 µM (inactive) | 5.66 µM (inactive) | > 21.7 µM (inactive) | 3.47 µM (inactive) | 21.3 µM (inactive)
4 | O=C(NC12CC3CC(CC(C3)C1)C2)C(=O)c1c[nH]c2ccccc12 | 18.7 µM (inactive) | 5.94 µM (inactive) | 13.4 µM (inactive) | 18 µM (inactive) | 14.8 µM (inactive) | – | – | – | 13.1 µM (inactive)
5 | Cc1cc2occ(C)c(=O)c2c2c1OC(C)(C)S2 | > 100 µM (inactive) | > 100 µM (inactive) | > 100 µM (inactive) | – | > 100 µM (inactive) | > 100 µM (inactive) | > 100 µM (inactive) | – | > 100 µM (inactive)
6 | COc1cc(NCc2ccc3nc(N)nc(N)c3c2C)cc(OC)c1OC | 0.326 µM (active) | 0.0347 µM (active) | – | 5.42 µM (inactive) | 0.025 µM (active) | 0.0253 µM (active) | 7.29 µM (inactive) | – | 2.57 µM (inactive)
7 | CCOC(=O)CC(NC(=O)c1nc[nH]c1[N+](=O)[O-])C(=O)OCC (stereo not given) | 82 µM (inactive) | – | 41.5 µM (inactive) | – | 40.6 µM (inactive) | 39 µM (inactive) | – | – | –
8 | COc1cc2c(c(OC)c1OC)-c1ccc(SC)c(=O)cc1[C@@H](NCc1cccc(C#N)c1)CC2 | 0.0193 µM (active) | 0.0131 µM (active) | 0.0147 µM (active) | 0.0197 µM (active) | 0.00647 µM (active) | 0.0245 µM (active) | – | 0.0075 µM (active) | 0.0257 µM (active)
9 | COc1ccc2c(=O)c([Se]c3coc4cc(OC)ccc4c3=O)coc2c1 | 28.3 µM (inactive) | > 100 µM (inactive) | 32.5 µM (inactive) | 22.7 µM (inactive) | 53.2 µM (inactive) | 36.6 µM (inactive) | > 100 µM (inactive) | – | > 100 µM (inactive)
10 | CCOC(=O)C1Cc2ccc3c4c(ccc(c24)C1)CC(C(=O)OCC)C3 | > 100 µM (inactive) | > 100 µM (inactive) | – | > 100 µM (inactive) | > 100 µM (inactive) | > 100 µM (inactive) | > 100 µM (inactive) | – | > 100 µM (inactive)
11 | O=C1CCN2CCC(=O)c3c2c(cc2ccccc32)N1 | > 100 µM (inactive) | > 100 µM (inactive) | > 100 µM (inactive) | > 100 µM (inactive) | > 100 µM (inactive) | > 100 µM (inactive) | – | – | 26.8 µM (inactive)
12 | CCOC(=O)C1=C(Nc2ccccc2)SC/C1=N\NC(=O)Cc1ccccc1 | > 100 µM (inactive) | > 100 µM (inactive) | > 100 µM (inactive) | > 100 µM (inactive) | > 100 µM (inactive) | > 100 µM (inactive) | > 100 µM (inactive) | > 100 µM (inactive) | > 100 µM (inactive)
13 | COc1cc2c3c(c1OC)-c1ccccc1C(C(OC(C)=O)c1ccccc1)C3N(C)CC2 (stereo not given) | 28.8 µM (inactive) | 27.1 µM (inactive) | 19.7 µM (inactive) | 32.7 µM (inactive) | 19.3 µM (inactive) | 5.97 µM (inactive) | > 100 µM (inactive) | – | –
14 | COc1cc2c(cc1OC)C1(c3ccccc3)ON=C(c3ccccc3)N1CS2 (stereo not given) | > 100 µM (inactive) | > 100 µM (inactive) | > 100 µM (inactive) | > 100 µM (inactive) | > 100 µM (inactive) | > 100 µM (inactive) | > 100 µM (inactive) | > 100 µM (inactive) | > 100 µM (inactive)
15 | CCOC(=O)NC(=O)c1cn(CC(=O)NCC(=O)NCC(=O)NCCCN2CCN(CCCNC(=O)CNC(=O)CNC(=O)Cn3cc(C(=O)NC(=O)OCC)c(=O)[nH]c3=O)CC2)c(=O)[nH]c1=O | > 100 µM (inactive) | > 100 µM (inactive) | > 100 µM (inactive) | > 100 µM (inactive) | > 100 µM (inactive) | > 100 µM (inactive) | > 100 µM (inactive) | > 100 µM (inactive) | > 100 µM (inactive)
16 | Cc1cn(C2CC(O)C(CO)O2)c(=O)[nH]c1=O (stereo not given) | 1070 µM (inactive) | 3360 µM (inactive) | – | 3180 µM (inactive) | 3780 µM (inactive) | 2700 µM (inactive) | 4610 µM (inactive) | – | 263 µM (inactive)
17 | CCN(CC)CCC(=O)N1C/C(=C/c2ccccc2)C(=O)/C(=C\c2ccccc2)C1 | 1.39 µM (inactive) | 1.71 µM (inactive) | 1.56 µM (inactive) | – | 1.42 µM (inactive) | 1.29 µM (inactive) | 2.8 µM (inactive) | – | 2.63 µM (inactive)
18 | CCOC(=O)[C@H]1Nc2ccc([N+](=O)[O-])cc2C2c3ccccc3CC21 (stereo not given in full) | 20.8 µM (inactive) | 20.6 µM (inactive) | 5.79 µM (inactive) | 42.1 µM (inactive) | 12.6 µM (inactive) | 25.4 µM (inactive) | – | – | 30 µM (inactive)
19 | CCCCCCCCCC[S+]([O-])CC(CO)NC(=O)/C=C/c1c(C)nc(O)nc1O (stereo not given) | 0.475 µM (active) | 0.695 µM (active) | – | 0.718 µM (active) | 0.37 µM (active) | 0.476 µM (active) | 1.49 µM (inactive) | – | 0.0376 µM (active)
20 | O=C(Nc1ccc(Sc2ccc(/N=N/c3c(O)c(S(=O)(=O)O)cc4cc(S(=O)(=O)O)ccc34)cc2)cc1)c1ccc(/N=N/c2c(O)ccc3c(S(=O)(=O)O)cc(S(=O)(=O)O)cc23)cc1 | 16.6 µM (inactive) | 58.7 µM (inactive) | 25.2 µM (inactive) | 36.4 µM (inactive) | 25.9 µM (inactive) | 37.7 µM (inactive) | 33 µM (inactive) | 41.3 µM (inactive) | 28.2 µM (inactive)
21 | COC(=O)C1CCC(C)CC1=O (stereo not given) | > 100 µM (inactive) | – | > 100 µM (inactive) | > 100 µM (inactive) | > 100 µM (inactive) | > 100 µM (inactive) | – | > 100 µM (inactive) | > 100 µM (inactive)
22 | COC1=CC(=O)c2c(O)c3c(c(O)c2C1=O)C=C(C)OC3O (stereo not given) | 0.224 µM (active) | 0.365 µM (active) | 1.36 µM (inactive) | 1.73 µM (inactive) | 1.01 µM (active) | 0.665 µM (active) | – | – | 1.84 µM (inactive)
23 | COC(=O)CCCCCOS(=O)(=O)c1ccc(C)cc1 | > 100 µM (inactive) | > 100 µM (inactive) | > 100 µM (inactive) | > 100 µM (inactive) | > 100 µM (inactive) | > 100 µM (inactive) | > 100 µM (inactive) | > 100 µM (inactive) | > 100 µM (inactive)
24 | CC1=C(SC#N)S(=O)(=O)N(c2ccccc2)C(C)=C1SC#N | 29.5 µM (inactive) | – | 22.4 µM (inactive) | 78.3 µM (inactive) | 50.5 µM (inactive) | 33.3 µM (inactive) | – | – | 16.8 µM (inactive)
25 | CCCCCCCCCCCCC(CC)CCCCC(=O)O (stereo not given) | > 100 µM (inactive) | > 100 µM (inactive) | > 100 µM (inactive) | > 100 µM (inactive) | > 100 µM (inactive) | > 100 µM (inactive) | > 100 µM (inactive) | > 100 µM (inactive) | > 100 µM (inactive)
26 | CCOC(=O)c1nc(-c2ccccc2)oc1OCC | > 100 µM (inactive) | > 100 µM (inactive) | > 100 µM (inactive) | > 100 µM (inactive) | 90.2 µM (inactive) | > 100 µM (inactive) | > 100 µM (inactive) | – | 21.2 µM (inactive)
27 | COc1ccc(CN(O)C2C(CO)OC(n3cc(I)c(=O)[nH]c3=O)C2O)cc1 (stereo not given) | > 100 µM (inactive) | > 100 µM (inactive) | > 100 µM (inactive) | > 100 µM (inactive) | > 100 µM (inactive) | > 100 µM (inactive) | > 100 µM (inactive) | – | > 100 µM (inactive)
